The values below are quoted from earlier work in patent publication US20030176652A1, “Human and mouse beta-defensins, antimicrobial peptides” (priority 2001, published 2003).

One data set relates to Listeria monocytogenes. The arrangement: unit not given beside the values.
The next data set relates to Haemophilus ducreyi. Set-up: unit not given beside the values.
Data set [1] concerns Staphylococcus aureus. Set-up: MIC50 / MIC90: unit not given beside the values.
Data set [2] deals with Staphylococcus haemolyticus.
Another data set relates to Bacteroides fragilis. The arrangement: MIC50 / MIC90: unit not given beside the values.
A further data set has as its system Staphylococcus hominis. The arrangement: unit not given beside the values.
The subject of another data set is Streptococcus agalactiae. The arrangement: MIC50 / MIC90: unit not given beside the values.
Data set [3] concerns Staphylococcus epidermidis. Set-up: unit not given beside the values.
Another data set has as its system Campylobacter jejuni. The arrangement: MIC90: unit not given beside the values.
Data set [4] has as its system Branhamella (Moraxella) catarrhalis. Particulars: Branhamella (Moraxella) catarrhalis (β-lactamase producer).
Data set [5] has as its system Bordetella bronchiseptica. Set-up: MIC50 / MIC90: unit not given beside the values.
A further data set relates to Haemophilus influenzae. The arrangement: MIC50 / MIC90: unit not given beside the values.
The subject of a further data set is Enterococcus spp. The arrangement: MIC50 / MIC90: unit not given beside the values.
The test system of the next data set is Campylobacter pylori. Set-up: MIC50: unit not given beside the values.
For another data set, the system named is Streptococcus pyogenes. Set-up: unit not given beside the values.
A further data set relates to Neisseria gonorrhoeae. The arrangement: MIC90: unit not given beside the values.
The subject of the next data set is Neisseria meningitidis. The arrangement: MIC50 / MIC90: unit not given beside the values.
For data set [6], the system named is Haemophilus parainfluenzae. Set-up: MIC50 / MIC90: unit not given beside the values.
Another data set concerns Streptococcus spp. The arrangement: unit not given beside the values.
The next data set relates to Bacillus spp. Set-up: MIC90: unit not given beside the values.
A further data set has as its system Nocardia asteroides. Set-up: MIC50 / MIC90: unit not given beside the values.
The test system of a further data set is Mycoplasma hominis. The arrangement: MIC50 / MIC90: unit not given beside the values.
Data set [7] relates to cells expressing the human CCR6.
The test system of data set [8] is Staphylococcus aureus. Particulars: physiological salt concentrations.
The mark [9] stands for this setting: Staphylococcus aureus (methicillin resistant).
The mark [10] stands for this setting: Staphylococcus aureus (penicillin resistant).
The mark [11] stands for this setting: Staphylococcus aureus (penicillin susceptible).
[12] abbreviates: Haemophilus influenzae (non β-lactamase producer).
[13] abbreviates: Haemophilus influenzae (penicillin resistant).
Where [14] appears, read: Haemophilus influenzae (penicillin susceptible).
The mark [15] stands for this setting: Haemophilus influenzae (β-lactamase producer).
Setting [16] is: Neisseria gonorrhoeae (non β-lactamase producer).

Where “and” joins values, the source holds several entries; their conditions need not be identical. Equal values may be shown once. Read-outs that look alike come from different tables or passages of the source. Where no end group is shown, it is not given here.

As for `CC[C@H]1OC(=O)[C@H](C)[C@@H](O[C@H]2C[C@@](C)(OC)[C@@H](O)[C@H](C)O2)[C@H](C)[C@@H](O[C@@H]2O[C@H](C)C[C@H](N(C)C)[C@H]2O)[C@](C)(O)C[C@@H](C)C(=O)[C@H](C)[C@@H](O)[C@]1(C)O` [ERYTHROMYCIN, erythromycin], the MIC50 with Listeria monocytogenes is 0.5; with Haemophilus ducreyi it was 0.004; with Staphylococcus aureus [1] (Staphylococcus aureus), 0.5; with Staphylococcus aureus [1] (setting [9]), 64 and 32; with Staphylococcus aureus [1] (Staphylococcus aureus (methicillin susceptible)) it was 0.5; in the data set on Staphylococcus aureus [1] (setting [11]), 0.5. The MIC50 in data set [2] was 64; in the data set on Bacteroides fragilis, 1; with Streptococcus pneumoniae it was 0.06 and 0.03; with Staphylococcus hominis it was 64; with Corynebacterium JK, 2; in the data set on Streptococcus agalactiae, 0.03. Also, the MIC50 was 64 in data set [3]; 8 in [5]; 2 and 1 with Haemophilus influenzae (Haemophilus influenzae); 2 and 4 with Haemophilus influenzae (setting [12]); 8 with Haemophilus influenzae (setting [13]); 8 in the data set on Haemophilus influenzae (setting [14]). Further, the MIC50 is 4 and 2 with Haemophilus influenzae (setting [15]); 2 with Enterococcus spp.; 0.03 in the data set on Borrelia burgdorferi; 0.5 in the data set with Campylobacter pylori; 1 in the data set with Enterococcus faecium; 0.06 and 0.03 in the data set on Streptococcus pyogenes. Further, the MIC50 is 1 in the data set with Neisseria meningitidis, 2 in data set [6], 0.03 with Streptococcus spp. and 8 in the data set with Nocardia asteroides. In addition, the MIC90 with Haemophilus ducreyi is 0.06; in the data set with Staphylococcus aureus [1] (setting [9]), 64 and 32; with Staphylococcus aureus [1] (setting [10]), 32; in the data set on Staphylococcus aureus [1] (setting [11]) it was 0.5; in [2], 64; with Bacteroides fragilis, 8. Further, the MIC90 in the data set with Streptococcus pneumoniae was 0.03 and 0.06; in the data set on Staphylococcus hominis it was 64; in the data set on Corynebacterium JK, 64; in the data set with Streptococcus agalactiae, 0.03; in data set [3], 64; in the data set with Campylobacter jejuni it was 4 and 2. Moreover, the MIC90 in [5] was 32; in the data set on Haemophilus influenzae (Haemophilus influenzae), 2 and 4; in the data set on Haemophilus influenzae (setting [12]), 4 and 8; with Haemophilus influenzae (setting [13]) it was 16; in the data set with Haemophilus influenzae (setting [14]), 16; in the data set with Haemophilus influenzae (setting [15]), 8 and 4. The MIC90 in the data set with Enterococcus spp. was 32; with Borrelia burgdorferi it was 0.06; with Enterococcus faecium, 64; in the data set on Neisseria gonorrhoeae (Neisseria gonorrhoeae), 1; in the data set on Neisseria gonorrhoeae (setting [16]), 2 and 1; with Neisseria gonorrhoeae (Neisseria gonorrhoeae (β-lactamase producer)) it was 2 and 4. Further, the MIC90 with Neisseria meningitidis is on record as 8; in data set [6], 4; in the data set with Ureaplasma urealyticum, 32; in the data set with Bacillus spp., 2; in the data set on Nocardia asteroides, 8. Further, the Range in the data set on Staphylococcus aureus [1] (setting [10]) was 0.25-32; in the data set with Staphylococcus aureus [1] (setting [11]), 0.06-32; in the data set on Bacteroides fragilis, 0.25-16; in the data set on Streptococcus pneumoniae it was 0.03-0.25 and 0.015-0.06 and 0.015-0.25; with Streptococcus agalactiae, 0.03-0.25 and 0.015-0.06; in the data set with Campylobacter jejuni it was 0.5-8. Further, the Range in data set [4] is 0.06-1 and 0.03-0.25 and 0.06-8; in data set [5], 4-32; with Haemophilus influenzae (Haemophilus influenzae), 0.5-8 and 0.25-16; in the data set on Haemophilus influenzae (setting [12]) it was 0.06-8; in the data set with Haemophilus influenzae (setting [13]), 8-16; in the data set on Haemophilus influenzae (setting [14]), 0.25-16. The Range was 0.06-32 with Enterococcus spp.; 0.25-16 in the data set on Campylobacter pylori; 0.06-64 with Enterococcus faecium; 0.0075-8 with Neisseria gonorrhoeae (Neisseria gonorrhoeae); 0.015-4 and 0.03-2 in the data set with Neisseria gonorrhoeae (setting [16]); 0.5-8 in the data set with Neisseria meningitidis. For the same compound, the results for the Range (in data set [6]; in the data set with Bacillus spp.; with Nocardia asteroides) were 0.5-8, 0.03-2 and 0.25-8, respectively.
For the compound `CCC[C@@H]1C[C@@H](C(=O)N[C@@H]([C@H]2O[C@H](SC)[C@H](O)[C@@H](O)[C@H]2O)[C@@H](C)O)N(C)C1` [LINCOMYCIN, lincomycin], the MIC50 is given as 1 in the data set with Staphylococcus aureus [1] (Staphylococcus aureus), 2 in the data set with Mycoplasma hominis, 8 with Mycoplasma pneumoniae and 128 in the data set on Ureaplasma urealyticum. Moreover, the MIC90 in the data set with Staphylococcus aureus [1] (Staphylococcus aureus) is reported as 1; with Mycoplasma hominis, 4; with Mycoplasma pneumoniae, 32; with Ureaplasma urealyticum it was 128. Besides, the Range in the data set on Staphylococcus aureus [1] (Staphylococcus aureus) was 0.5-512; in the data set with Mycoplasma hominis, 0.5-16; in the data set with Mycoplasma pneumoniae, 2-32; in the data set on Ureaplasma urealyticum, 64-128.
Take “CCL20: the only reported chemokine ligand for CCR6”: the “chemokine activity relative to HBD-1 and HBD-2” value in data set [7] (greater than that of HBD-1 and HBD-2) is on record as “approximately 10 fold”.
Turning to “DEFB3: protein encoded by the known human β-defensin gene DEFB3 (GIINTLQKYYCRVRGGRCAVLSCLPKEEQIGKCSTRGRKCCRRKK; not fully specified (bridges); cysteine pairing not given here; UniProt P81534 23-67, looked up)”, the “salt sensitivity of bactericidal activity against Staphylococcus aureus” value with Staphylococcus aureus [8] is reported as “not salt-sensitive”.
For “HBD-1: known human β-defensin peptide, product of DEFB1 (DHYNCVSSGGQCLYSACPIFTKIQGTCYRGKAKCCK; not fully specified (bridges); cysteine pairing not given here; UniProt P60022 33-68, looked up)”, the “chemotaxis of cells expressing the human CCR6” value in data set [7] was “selectively chemotactic”.
For “HBD-2: HBD-2 protein encoded by the DEFB2 gene (GIGDPVTCLKSGAICHPVFCPRRYKQIGTCGLPGTKCCKKP; UniProt O15263 24-64, looked up)”, the “histamine release from mast cells” value in the data set with mast cells was “stimulates mast cells to release histamine”. Moreover, the “chemotaxis of cells expressing the human CCR6” value in data set [7] is “selectively chemotactic”.
